Experimental data as given in patent publication US11000555B2, “Method for preparing a limax compound and therapeutic use thereof” (GUANGXI JIUFU BIOTECHNOLOGY CO., LTD, priority 2017, dated 2021).
Marks after values point to notes of the source that are not given here.

Test system: mice
Experiment: Sleeping duration induced by a threshold dose of pentobarbital sodium
Type: in vivo, Kunming mice
Details: for Sleeping duration: pentobarbital sodium 50 mg/kg ip
Protocol: Forty Kunming mice, half males and half females, were fasted for 12 h but free to drink water. The mice were randomly divided into four groups: a blank control group, a low does Compound group (0.4 g/kg, ig), a high dose Compound group (0.8 g/kg, ig) and a positive drug control group (Estazolam, 2 mg/kg). each group of mice was administered according to the above doses (ig), and the blank control group was given the same volume of normal saline. Forty-five minutes later, each mouse was given (ip) 50 mg/kg pentobarbital sodium, and then the sleeping duration of each group of mice was recorded (taking the disappear of righting reflex after administration as the indicator of falling asleep, and the recovery of righting reflex as the end time of the sleep).

CC1(C)O[C@H]2CC[C@@]3(C)[C@@H]([C@@H](O)[C@H](O)[C@@H]3[C@@](C)(O)CC[C@@H]3OC(C)(C)[C@H]4CC[C@]3(C)O4)[C@]2(C)CC[C@H]1O [the compound, limaxol A]
Effect on sleeping duration induced by pentobarbital sodium (0.4, 0.8 g/kg, ig): significantly prolong the sleeping duration | Sleeping duration (high dose 0.8 g/kg ig): 32.8 ± 9.56*^ΔΔ min | Sleeping duration (low dose 0.4 g/kg ig): 39.5 ± 11.46**^Δ min
